Measurements as given in ChEMBL document CHEMBL1154779, “Synthesis and adrenolytic activity of 1-(1H-indol-4-yloxy)-3-(2-(2-methoxy phenoxy)ethylamino)propan-2-ol analogs and its enantiomers. Part 2” (Eur J Med Chem, 2009).
Blank lines part the entries; values can stand above or below the compound they belong to.

Experiments:
Rattus norvegicus [1] = test: Effect on heart rate in anesthetized Wistar rat assessed as QRS complex time at 1 mg/kg, iv after 1 min by electrocardiography; type: functional
Rattus norvegicus [2] = test: Effect on heart rate in anesthetized Wistar rat assessed as QRS complex time at 1 mg/kg, iv after 15 mins by electrocardiography; type: functional
Rattus norvegicus [3] = test: Effect on heart rate in anesthetized Wistar rat assessed as Q-T intervals time at 1 mg/kg, iv after 1 min by electrocardiography; type: functional
Rattus norvegicus [4] = test: Effect on heart rate in anesthetized Wistar rat assessed as Q-T intervals time at 1 mg/kg, iv after 5 mins by electrocardiography; type: functional
Rattus norvegicus [5] = test: Effect on heart rate in anesthetized Wistar rat assessed as Q-T intervals time at 1 mg/kg, iv after 15 mins by electrocardiography; type: functional
Rattus norvegicus [6] = test: Effect on heart rate in anesthetized Wistar rat assessed as heart beats per min at 1 mg/kg, iv after 1 min by electrocardiography; type: functional
Rattus norvegicus [7] = test: Effect on heart rate in anesthetized Wistar rat assessed as heart beats per min at 1 mg/kg, iv after 5 mins by electrocardiography; type: functional
Rattus norvegicus [8] = test: Antiarrhythmic activity in Wistar rat assessed as inhibition of adrenaline-induced premature ventricular beats at 1 mg/kg, iv administered 15 mins before adrenaline challenge measured after 15 mins by electrocardiography; type: functional; details: Heart
[9] = biological target: T1, Adrenergic receptor alpha-2 (Rattus norvegicus, UniProt P22086+P19328+P22909); test: Displacement of [3H]Clonidine from alpha2 adrenergic receptor in Wistar rat cerebral cortex membrane by liquid scintillation counting; type: tissue-based
T1 sequence (P22086 whole entry): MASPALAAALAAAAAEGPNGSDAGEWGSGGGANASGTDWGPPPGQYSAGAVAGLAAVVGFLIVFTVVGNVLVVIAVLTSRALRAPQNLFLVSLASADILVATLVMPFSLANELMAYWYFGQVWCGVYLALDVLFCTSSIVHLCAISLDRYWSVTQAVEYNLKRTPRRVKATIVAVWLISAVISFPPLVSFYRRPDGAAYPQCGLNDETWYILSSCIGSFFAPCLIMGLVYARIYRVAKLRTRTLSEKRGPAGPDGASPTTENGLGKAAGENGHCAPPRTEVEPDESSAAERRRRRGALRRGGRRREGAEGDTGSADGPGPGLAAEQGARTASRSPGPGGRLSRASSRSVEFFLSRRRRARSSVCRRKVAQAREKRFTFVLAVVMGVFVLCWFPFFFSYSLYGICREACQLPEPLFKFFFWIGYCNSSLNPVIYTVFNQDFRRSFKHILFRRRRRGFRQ
T1 sequence (P19328 whole entry): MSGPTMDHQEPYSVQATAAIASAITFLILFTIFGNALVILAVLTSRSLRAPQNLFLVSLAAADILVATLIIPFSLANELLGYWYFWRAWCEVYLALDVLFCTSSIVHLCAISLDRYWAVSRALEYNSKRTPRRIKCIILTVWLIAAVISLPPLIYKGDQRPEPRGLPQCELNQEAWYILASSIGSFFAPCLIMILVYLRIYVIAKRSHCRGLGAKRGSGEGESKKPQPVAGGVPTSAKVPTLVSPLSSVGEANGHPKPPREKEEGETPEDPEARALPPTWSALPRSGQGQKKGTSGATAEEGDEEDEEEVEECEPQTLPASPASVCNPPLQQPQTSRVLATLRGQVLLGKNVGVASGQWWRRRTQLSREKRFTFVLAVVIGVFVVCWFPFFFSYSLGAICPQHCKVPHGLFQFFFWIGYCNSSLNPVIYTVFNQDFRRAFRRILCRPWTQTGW
T1 sequence (P22909 whole entry): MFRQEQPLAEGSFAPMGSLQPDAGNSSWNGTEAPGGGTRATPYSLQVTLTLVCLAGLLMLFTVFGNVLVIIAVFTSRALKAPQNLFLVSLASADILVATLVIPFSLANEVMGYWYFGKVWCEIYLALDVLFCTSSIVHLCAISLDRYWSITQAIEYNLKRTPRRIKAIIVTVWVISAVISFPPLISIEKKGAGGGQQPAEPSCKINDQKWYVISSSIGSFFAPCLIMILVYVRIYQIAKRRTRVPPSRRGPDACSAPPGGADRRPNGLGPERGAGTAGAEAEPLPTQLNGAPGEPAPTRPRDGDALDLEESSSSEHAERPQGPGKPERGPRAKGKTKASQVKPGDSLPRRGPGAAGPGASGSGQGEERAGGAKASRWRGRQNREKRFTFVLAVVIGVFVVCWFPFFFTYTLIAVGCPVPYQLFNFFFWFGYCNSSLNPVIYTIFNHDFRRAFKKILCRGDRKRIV

[10] = Displacement of [3H]CGP12177 from beta-1 adrenergic receptor in Wistar rat cerebral cortex membrane by liquid scintillation counting; type: tissue-based
Rattus norvegicus [11] = test: Effect on heart rate in anesthetized Wistar rat assessed as P-Q intervals time at 1 mg/kg, iv after 5 mins by electrocardiography; type: functional
Rattus norvegicus [12] = test: Effect on heart rate in anesthetized Wistar rat assessed as P-Q intervals time at 1 mg/kg, iv after 15 mins by electrocardiography; type: functional

Compound: COc1ccccc1OCCNCC(O)COc1c(OC)ccc2[nH]ccc12 (racemic)
Activity (Rattus norvegicus [1]): 31.3 ms
Activity (Rattus norvegicus [2]): 26 ms
Activity (Rattus norvegicus [3]): 111.4 ms
Activity (Rattus norvegicus [4]): 107.3 ms
Activity (Rattus norvegicus [5]): 118 ms
Activity (Rattus norvegicus [6]): 376.3 bpm
Activity (Rattus norvegicus [7]): 372.9 bpm
ED50 (Rattus norvegicus [8]): 0.38 mg/kg
Ki [9]: 56.9 nM
Ki [10]: 1600 nM
Activity (Rattus norvegicus [11]): 51.3 ms
Activity (Rattus norvegicus [12]): 48 ms

Compound: COc1ccccc1OCCNC[C@@H](O)COc1c(OC)ccc2[nH]ccc12
Activity (Rattus norvegicus [1]): 28 ms
Activity (Rattus norvegicus [2]): 28.7 ms
Activity (Rattus norvegicus [3]): 106.7 ms
Activity (Rattus norvegicus [4]): 106 ms
Activity (Rattus norvegicus [5]): 113.3 ms
Activity (Rattus norvegicus [6]): 395.5 bpm
Activity (Rattus norvegicus [7]): 403.2 bpm
ED50 (Rattus norvegicus [8]): 0.16 mg/kg
Ki [9]: 43 nM
Ki [10]: 3400 nM
Activity (Rattus norvegicus [11]): 42.7 ms
Activity (Rattus norvegicus [12]): 42 ms

Compounds with a lower Ki [10], results first:

Ki [9]: 180.8 nM
Ki [10]: 125 nM
Compound: COc1ccccc1OCCNCC(O)COc1ccc(OC)c2[nH]ccc12 (racemic)
Activity (Rattus norvegicus [1]): 24.2 ms
Activity (Rattus norvegicus [2]): 22.7 ms
Activity (Rattus norvegicus [3]): 87.1 ms
Activity (Rattus norvegicus [4]): 79.2 ms
Activity (Rattus norvegicus [5]): 79.2 ms
Activity (Rattus norvegicus [6]): 297.3 bpm
Activity (Rattus norvegicus [7]): 292.2 bpm
ED50 (Rattus norvegicus [8]): 0.45 mg/kg
Activity (Rattus norvegicus [11]): 59.4 ms
Activity (Rattus norvegicus [12]): 57.3 ms

Ki [9]: 277.2 nM
Ki [10]: 59.3 nM
Compound: COc1ccccc1OCCNC[C@H](O)COc1ccc(OC)c2[nH]ccc12
Activity (Rattus norvegicus [1]): 25 ms
Activity (Rattus norvegicus [2]): 22.5 ms
Activity (Rattus norvegicus [3]): 78.8 ms
Activity (Rattus norvegicus [4]): 94.8 ms
Activity (Rattus norvegicus [5]): 83 ms
Activity (Rattus norvegicus [6]): 292 bpm
Activity (Rattus norvegicus [7]): 292.3 bpm
ED50 (Rattus norvegicus [8]): 0.53 mg/kg
Activity (Rattus norvegicus [11]): 56.7 ms
Activity (Rattus norvegicus [12]): 53.3 ms

Ki [9]: 60.9 nM
Ki [10]: 887 nM
Compound: COc1ccccc1OCCNC[C@H](O)COc1c(OC)ccc2[nH]ccc12
Activity (Rattus norvegicus [1]): 26 ms
Activity (Rattus norvegicus [2]): 28 ms
Activity (Rattus norvegicus [3]): 107.3 ms
Activity (Rattus norvegicus [4]): 111.3 ms
Activity (Rattus norvegicus [5]): 118 ms
Activity (Rattus norvegicus [6]): 388.1 bpm
Activity (Rattus norvegicus [7]): 381 bpm
ED50 (Rattus norvegicus [8]): 0.3 mg/kg
Activity (Rattus norvegicus [11]): 46 ms
Activity (Rattus norvegicus [12]): 46 ms

Ki [9]: 108.8 nM
Ki [10]: 531 nM
Compound: COc1ccccc1OCCNC[C@@H](O)COc1ccc(OC)c2[nH]ccc12
Activity (Rattus norvegicus [1]): 22.7 ms
Activity (Rattus norvegicus [2]): 24.5 ms
Activity (Rattus norvegicus [3]): 89.2 ms
Activity (Rattus norvegicus [4]): 88 ms
Activity (Rattus norvegicus [5]): 81.7 ms
Activity (Rattus norvegicus [6]): 267.4 bpm
Activity (Rattus norvegicus [7]): 259 bpm
ED50 (Rattus norvegicus [8]): 0.38 mg/kg
Activity (Rattus norvegicus [11]): 59.7 ms
Activity (Rattus norvegicus [12]): 58 ms
